# Measurements as given in paper PMC4206749 (Toxicological Research, 2014).
# Legend:
# [1] = tested on: Salmonella typhimurium strain TA98; test: Bacterial reverse mutation assay; format: cell-based
# [2] = tested on: CHL cells (Chinese hamster lung fibroblast cell line); test: In vitro chromosomal aberration assay; format: cell-based; settings: for Gap / Numerical aberrations, PP + ER / Structural aberrations, Chromatid type, ctb / Structural aberrations, Chromatid type, cte / Structural aberrations, Chromosome type, csb / Structural aberrations, Chromosome type, cse / Structural aberrations, Others: 200 cells
# [3] = S9 (−), 24~0 hr continuous, 25 μg/ml
# [4] = S9 (−), 24~0 hr continuous, 50 μg/ml
compound,measurement,setting,value
"Oc1ccc(-c2ccc3cc(O)ccc3c2)c(O)c1 [HS-1793, 4-(6-hydroxy-2-naphthyl)-1,3-benzenediol]",Number of reverse mutants/plate (Mean ± SD),"[1]; TA98, with S9 activation, 78.1 μg/plate",40 ± 4 reverse mutants/plate
same,Number of reverse mutants/plate (Mean ± SD),"[1]; TA98, with S9 activation, 312.5 μg/plate",43 ± 8 reverse mutants/plate
same,Number of reverse mutants/plate (Mean ± SD),"[1]; TA98, with S9 activation, 625 μg/plate",42 ± 4 reverse mutants/plate
same,Number of reverse mutants/plate (Mean ± SD),"[1]; TA98, with S9 activation, 1,250 μg/plate",43 ± 4 reverse mutants/plate
same,Number of reverse mutants/plate (Mean ± SD),"[1]; TA98, with S9 activation, 2,500 μg/plate",44 ± 4 reverse mutants/plate
same,Number of reverse mutants/plate (Mean ± SD),"[1]; TA98, with S9 activation, 5,000 μg/plate",33 ± 2 reverse mutants/plate
same,Number of reverse mutants/plate (Mean ± SD),"[1]; TA98, without S9 activation, 78.1 μg/plate",29 ± 2 reverse mutants/plate
same,Number of reverse mutants/plate (Mean ± SD),"[1]; TA98, without S9 activation, 156.3 μg/plate",27 ± 2 reverse mutants/plate
same,Number of reverse mutants/plate (Mean ± SD),"[1]; TA98, without S9 activation, 312.5 μg/plate",30 ± 4 reverse mutants/plate
same,Number of reverse mutants/plate (Mean ± SD),"[1]; TA98, without S9 activation, 625 μg/plate",26 ± 3 reverse mutants/plate
same,Number of reverse mutants/plate (Mean ± SD),"[1]; TA98, without S9 activation, 1,250 μg/plate",25 ± 2 reverse mutants/plate
same,Number of reverse mutants/plate (Mean ± SD),"[1]; TA98, without S9 activation, 2,500 μg/plate",28 ± 1 reverse mutants/plate
same,Number of reverse mutants/plate (Mean ± SD),"[1]; TA98, without S9 activation, 5,000 μg/plate",27 ± 3 reverse mutants/plate
same,Growth index,"[2]; S9 (+), 6~18 hr, 6.25 μg/ml",98%
same,Total frequency (+) Gap,"[2]; S9 (+), 6~18 hr, 6.25 μg/ml",1.5%
same,Total frequency (−) Gap,"[2]; S9 (+), 6~18 hr, 6.25 μg/ml",1%
same,Gap,"[2]; S9 (+), 6~18 hr, 6.25 μg/ml",1
same,"Numerical aberrations, PP + ER","[2]; S9 (+), 6~18 hr, 6.25 μg/ml",0
same,"Structural aberrations, Chromatid type, ctb","[2]; S9 (+), 6~18 hr, 6.25 μg/ml",1
same,"Structural aberrations, Chromatid type, cte","[2]; S9 (+), 6~18 hr, 6.25 μg/ml",1
same,"Structural aberrations, Chromosome type, csb","[2]; S9 (+), 6~18 hr, 6.25 μg/ml",0
same,"Structural aberrations, Chromosome type, cse","[2]; S9 (+), 6~18 hr, 6.25 μg/ml",0
same,"Structural aberrations, Others","[2]; S9 (+), 6~18 hr, 6.25 μg/ml",0
same,Growth index,"[2]; S9 (+), 6~18 hr, 12.5 μg/ml",95%
same,Total frequency (+) Gap,"[2]; S9 (+), 6~18 hr, 12.5 μg/ml",1%
same,Total frequency (−) Gap,"[2]; S9 (+), 6~18 hr, 12.5 μg/ml",0.5%
same,Gap,"[2]; S9 (+), 6~18 hr, 12.5 μg/ml",1
same,"Numerical aberrations, PP + ER","[2]; S9 (+), 6~18 hr, 12.5 μg/ml",0
same,"Structural aberrations, Chromatid type, ctb","[2]; S9 (+), 6~18 hr, 12.5 μg/ml",0
same,"Structural aberrations, Chromatid type, cte","[2]; S9 (+), 6~18 hr, 12.5 μg/ml",1
same,"Structural aberrations, Chromosome type, csb","[2]; S9 (+), 6~18 hr, 12.5 μg/ml",0
same,"Structural aberrations, Chromosome type, cse","[2]; S9 (+), 6~18 hr, 12.5 μg/ml",0
same,"Structural aberrations, Others","[2]; S9 (+), 6~18 hr, 12.5 μg/ml",0
same,Growth index,"[2]; S9 (+), 6~18 hr, 25 μg/ml",89%
same,Total frequency (+) Gap,"[2]; S9 (+), 6~18 hr, 25 μg/ml",3.5%
same,Total frequency (−) Gap,"[2]; S9 (+), 6~18 hr, 25 μg/ml",2.5%
same,Gap,"[2]; S9 (+), 6~18 hr, 25 μg/ml",2
same,"Numerical aberrations, PP + ER","[2]; S9 (+), 6~18 hr, 25 μg/ml",0
same,"Structural aberrations, Chromatid type, ctb","[2]; S9 (+), 6~18 hr, 25 μg/ml",2
same,"Structural aberrations, Chromatid type, cte","[2]; S9 (+), 6~18 hr, 25 μg/ml",3
same,"Structural aberrations, Chromosome type, csb","[2]; S9 (+), 6~18 hr, 25 μg/ml",0
same,"Structural aberrations, Chromosome type, cse","[2]; S9 (+), 6~18 hr, 25 μg/ml",0
same,"Structural aberrations, Others","[2]; S9 (+), 6~18 hr, 25 μg/ml",0
same,Total frequency (+) Gap,"[2]; S9 (+), 6~18 hr, 50 μg/ml",3%
same,Total frequency (−) Gap,"[2]; S9 (+), 6~18 hr, 50 μg/ml",2.5%
same,Gap,"[2]; S9 (+), 6~18 hr, 50 μg/ml",1
same,"Numerical aberrations, PP + ER","[2]; S9 (+), 6~18 hr, 50 μg/ml",0
same,"Structural aberrations, Chromatid type, ctb","[2]; S9 (+), 6~18 hr, 50 μg/ml",3
same,"Structural aberrations, Chromosome type, csb","[2]; S9 (+), 6~18 hr, 50 μg/ml",0
same,"Structural aberrations, Chromosome type, cse","[2]; S9 (+), 6~18 hr, 50 μg/ml",0
same,"Structural aberrations, Others","[2]; S9 (+), 6~18 hr, 50 μg/ml",0
same,Growth index,"[2]; S9 (+), 6~18 hr, 100 μg/ml",71%
same,Total frequency (+) Gap,"[2]; S9 (+), 6~18 hr, 100 μg/ml",1.5%
same,Total frequency (−) Gap,"[2]; S9 (+), 6~18 hr, 100 μg/ml",0.5%
same,Gap,"[2]; S9 (+), 6~18 hr, 100 μg/ml",2
same,"Numerical aberrations, PP + ER","[2]; S9 (+), 6~18 hr, 100 μg/ml",0
same,"Structural aberrations, Chromatid type, ctb","[2]; S9 (+), 6~18 hr, 100 μg/ml",0
same,"Structural aberrations, Chromatid type, cte","[2]; S9 (+), 6~18 hr, 100 μg/ml",1
same,"Structural aberrations, Chromosome type, csb","[2]; S9 (+), 6~18 hr, 100 μg/ml",0
same,"Structural aberrations, Chromosome type, cse","[2]; S9 (+), 6~18 hr, 100 μg/ml",0
same,"Structural aberrations, Others","[2]; S9 (+), 6~18 hr, 100 μg/ml",0
same,Growth index,"[2]; S9 (−), 6~18 hr, 6.25 μg/ml",98%
same,Total frequency (+) Gap,"[2]; S9 (−), 6~18 hr, 6.25 μg/ml",1.5%
same,Total frequency (−) Gap,"[2]; S9 (−), 6~18 hr, 6.25 μg/ml",1%
same,Gap,"[2]; S9 (−), 6~18 hr, 6.25 μg/ml",1
same,"Numerical aberrations, PP + ER","[2]; S9 (−), 6~18 hr, 6.25 μg/ml",0
same,"Structural aberrations, Chromatid type, ctb","[2]; S9 (−), 6~18 hr, 6.25 μg/ml",0
same,"Structural aberrations, Chromatid type, cte","[2]; S9 (−), 6~18 hr, 6.25 μg/ml",2
same,"Structural aberrations, Chromosome type, csb","[2]; S9 (−), 6~18 hr, 6.25 μg/ml",0
same,"Structural aberrations, Chromosome type, cse","[2]; S9 (−), 6~18 hr, 6.25 μg/ml",0
same,"Structural aberrations, Others","[2]; S9 (−), 6~18 hr, 6.25 μg/ml",0
same,Growth index,"[2]; S9 (−), 6~18 hr, 12.5 μg/ml",90%
same,Total frequency (+) Gap,"[2]; S9 (−), 6~18 hr, 12.5 μg/ml",2%
same,Total frequency (−) Gap,"[2]; S9 (−), 6~18 hr, 12.5 μg/ml",1%
same,Gap,"[2]; S9 (−), 6~18 hr, 12.5 μg/ml",2
same,"Numerical aberrations, PP + ER","[2]; S9 (−), 6~18 hr, 12.5 μg/ml",0
same,"Structural aberrations, Chromatid type, ctb","[2]; S9 (−), 6~18 hr, 12.5 μg/ml",1
same,"Structural aberrations, Chromatid type, cte","[2]; S9 (−), 6~18 hr, 12.5 μg/ml",1
same,"Structural aberrations, Chromosome type, csb","[2]; S9 (−), 6~18 hr, 12.5 μg/ml",0
same,"Structural aberrations, Chromosome type, cse","[2]; S9 (−), 6~18 hr, 12.5 μg/ml",0
same,"Structural aberrations, Others","[2]; S9 (−), 6~18 hr, 12.5 μg/ml",0
same,Growth index,"[2]; S9 (−), 6~18 hr, 25 μg/ml",84%
same,Total frequency (+) Gap,"[2]; S9 (−), 6~18 hr, 25 μg/ml",2%
same,Total frequency (−) Gap,"[2]; S9 (−), 6~18 hr, 25 μg/ml",1%
same,Gap,"[2]; S9 (−), 6~18 hr, 25 μg/ml",2
same,"Numerical aberrations, PP + ER","[2]; S9 (−), 6~18 hr, 25 μg/ml",0
same,"Structural aberrations, Chromatid type, ctb","[2]; S9 (−), 6~18 hr, 25 μg/ml",0
same,"Structural aberrations, Chromatid type, cte","[2]; S9 (−), 6~18 hr, 25 μg/ml",1
same,"Structural aberrations, Chromosome type, csb","[2]; S9 (−), 6~18 hr, 25 μg/ml",1
same,"Structural aberrations, Chromosome type, cse","[2]; S9 (−), 6~18 hr, 25 μg/ml",0
same,"Structural aberrations, Others","[2]; S9 (−), 6~18 hr, 25 μg/ml",0
same,Growth index,"[2]; S9 (−), 6~18 hr, 50 μg/ml",72%
same,Total frequency (+) Gap,"[2]; S9 (−), 6~18 hr, 50 μg/ml",1.5%
same,Total frequency (−) Gap,"[2]; S9 (−), 6~18 hr, 50 μg/ml",1%
same,Gap,"[2]; S9 (−), 6~18 hr, 50 μg/ml",1
same,"Numerical aberrations, PP + ER","[2]; S9 (−), 6~18 hr, 50 μg/ml",0
same,"Structural aberrations, Chromatid type, ctb","[2]; S9 (−), 6~18 hr, 50 μg/ml",1
same,"Structural aberrations, Chromatid type, cte","[2]; S9 (−), 6~18 hr, 50 μg/ml",1
same,"Structural aberrations, Chromosome type, csb","[2]; S9 (−), 6~18 hr, 50 μg/ml",0
same,"Structural aberrations, Chromosome type, cse","[2]; S9 (−), 6~18 hr, 50 μg/ml",0
same,"Structural aberrations, Others","[2]; S9 (−), 6~18 hr, 50 μg/ml",0
same,Growth index,"[2]; S9 (−), 6~18 hr, 100 μg/ml",65%
same,Total frequency (−) Gap,"[2]; S9 (−), 6~18 hr, 100 μg/ml",0.5%
same,Gap,"[2]; S9 (−), 6~18 hr, 100 μg/ml",2
same,"Structural aberrations, Chromatid type, ctb","[2]; S9 (−), 6~18 hr, 100 μg/ml",0
same,"Structural aberrations, Chromosome type, csb","[2]; S9 (−), 6~18 hr, 100 μg/ml",0
same,"Structural aberrations, Chromosome type, cse","[2]; S9 (−), 6~18 hr, 100 μg/ml",0
same,"Structural aberrations, Others","[2]; S9 (−), 6~18 hr, 100 μg/ml",0
same,Growth index,"[2]; S9 (−), 24~0 hr continuous, 6.25 μg/ml",93%
same,Growth index,"[2]; S9 (−), 24~0 hr continuous, 12.5 μg/ml",85%
same,Growth index,[2]; [3],79%
same,Gap,[2]; [3],1
same,"Numerical aberrations, PP + ER",[2]; [3],1
same,"Structural aberrations, Chromatid type, ctb",[2]; [3],0
same,"Structural aberrations, Chromatid type, cte",[2]; [3],1
same,"Structural aberrations, Chromosome type, csb",[2]; [3],0
same,"Structural aberrations, Chromosome type, cse",[2]; [3],0
same,"Structural aberrations, Others",[2]; [3],0
same,Growth index,[2]; [4],72%
same,Total frequency (+) Gap,[2]; [4],2%
same,Total frequency (−) Gap,[2]; [4],1.5%
same,"Structural aberrations, Chromatid type, ctb",[2]; [4],2
same,"Structural aberrations, Chromatid type, cte",[2]; [4],1
same,"Structural aberrations, Chromosome type, csb",[2]; [4],0
same,"Structural aberrations, Chromosome type, cse",[2]; [4],0
same,"Structural aberrations, Others",[2]; [4],0
same,Growth index,"[2]; S9 (−), 24~0 hr continuous, 100 μg/ml",58%
same,Incidence of structural or numerical chromosomal aberrations,"[2]; continuous treatment for 24 hr, 6.25, 12.5, 25, 50 and 100 μg/ml, absence of the S9 mix",did not induce a significant increase
same,Incidence of structural or numerical chromosomal aberrations,"[2]; short term treatment for 6 hr, 6.25, 12.5, 25, 50 and 100 μg/ml, presence or absence of the S9 mix",did not induce a significant increase
